Results as given in patent US20220315621A1, “COMPOSITIONS AND METHODS FOR TREATING CNS DISORDERS” (priority 2017, published 2022).

What follows are molecules tested against TBPS binding (assay: Steroid inhibition of TBPS binding). Details: Table II-2; read-out: TBPS IC50 (μm).

Compound | IC50 [µM]
CC(=O)[C@H]1CC[C@H]2[C@@H]3CC[C@H]4C[C@H](O)CCC[C@]4(C)[C@H]3CC[C@]12C [II-B5, 1-((1S,3aS,3bR,5aS,7R,10aS,10bS,12aS)-7-hydroxy-10a,12a-dimethyloctadecahydrocyclohepta[a]cyclopenta[f]naphthalen-1-yl)ethan-1-one] | 0.1 to 1
CC(=O)[C@H]1CC[C@H]2[C@@H]3CC=C4CC[C@](C)(O)CC[C@]4(C)[C@H]3CC[C@]12C [II-C2a, 1-((1S,3aS,3bS,8S,10aR,10bS,12aS)-8-hydroxy-8,10a,12a-trimethyl-1,2,3,3a,3b,4,6,7,8,9,10,10a,10b,11,12,12a-hexadecahydrocyclohepta[a]cyclopenta[f]naphthalen-1-yl)ethan-1-one] | 0.01 to 0.1
CC(=O)[C@H]1CC[C@H]2[C@@H]3CC=C4CC[C@@](C)(O)CC[C@]4(C)[C@H]3CC[C@]12C [II-C2b, 1-((1S,3aS,3bS,8R,10aR,10bS,12aS)-8-hydroxy-8,10a,12a-trimethyl-1,2,3,3a,3b,4,6,7,8,9,10,10a,10b,11,12,12a-hexadecahydrocyclohepta[a]cyclopenta[f]naphthalen-1-yl)ethan-1-one] | 1 to 10
CC(=O)[C@H]1CC[C@H]2[C@@H]3CC[C@H]4CC[C@](C)(O)CC[C@]4(C)[C@H]3CC[C@]12C [II-C3, 1-((1S,3aS,3bR,5aS,8S,10aS,10bS,12aS)-8-hydroxy-8,10a,12a-trimethyloctadecahydrocyclohepta[a]cyclopenta[f]naphthalen-1-yl)ethan-1-one] | 0.01 to 0.1
C[C@@]1(O)CC[C@@H]2CC[C@@H]3[C@H](CC[C@]4(C)[C@@H](C(=O)Cn5cc(C#N)cn5)CC[C@@H]34)[C@@]2(C)CC1 [II-C8, 1-(2-((1S,3aS,3bR,5aS,8R,10aS,10bS,12aS)-8-hydroxy-8,10a,12a-trimethyloctadecahydrocyclohepta[a]cyclopenta[f]naphthalen-1-yl)-2-oxoethyl)-1H-pyrazole-4-carbonitrile] | 0.1 to 1
Cc1nnnn1CC(=O)[C@H]1CC[C@H]2[C@@H]3CC[C@H]4CC[C@](C)(O)CC[C@]4(C)[C@H]3CC[C@]12C [II-C10, 1-((1S,3aS,3bR,5aS,8S,10aS,10bS,12aS)-8-hydroxy-8,10a,12a-trimethyloctadecahydrocyclohepta[a]cyclopenta[f]naphthalen-1-yl)-2-(5-methyl-1H-tetrazol-1-yl)ethan-1-one] | 0.1 to 1
Cc1nnn(CC(=O)[C@H]2CC[C@H]3[C@@H]4CC[C@H]5CC[C@](C)(O)CC[C@]5(C)[C@H]4CC[C@]23C)n1 [II-C11, 1-((1S,3aS,3bR,5aS,8S,10aS,10bS,12aS)-8-hydroxy-8,10a,12a-trimethyloctadecahydrocyclohepta[a]cyclopenta[f]naphthalen-1-yl)-2-(5-methyl-2H-tetrazol-2-yl)ethan-1-one] | 0.01 to 0.1
CC(=O)[C@H]1CC[C@H]2[C@@H]3CC=C4C[C@](C)(O)CCC[C@]4(C)[C@H]3CC[C@]12C [II-D2a, 1-((1S,3aS,3bS,7R,10aR,10bS,12aS)-7-hydroxy-7,10a,12a-trimethyl-1,2,3,3a,3b,4,6,7,8,9,10,10a,10b,11,12,12a-hexadecahydrocyclohepta[a]cyclopenta[f]naphthalen-1-yl)ethan-1-one] | 1 to 10
CC(=O)[C@H]1CC[C@H]2[C@@H]3CC[C@H]4C[C@](C)(O)CCC[C@]4(C)[C@H]3CC[C@]12C [II-D3a, 1-((1S,3aS,3bR,5aS,7R,10aS,10bS,12aS)-7-hydroxy-7,10a,12a-trimethyloctadecahydrocyclohepta[a]cyclopenta[f]naphthalen-1-yl)ethan-1-one] | 1 to 10
C[C@@]1(O)CCC[C@@]2(C)[C@@H](CC[C@@H]3[C@@H]2CC[C@]2(C)[C@@H](C(=O)Cn4cc(C#N)cn4)CC[C@@H]32)C1 [II-D5a, 1-(2-((1S,3aS,3bR,5aS,7R,10aS,10bS,12aS)-7-hydroxy-7,10a,12a-trimethyloctadecahydrocyclohepta[a]cyclopenta[f]naphthalen-1-yl)-2-oxoethyl)-1H-pyrazole-4-carbonitrile] | 0.01 to 0.1
C[C@]1(O)CCC[C@@]2(C)[C@@H](CC[C@@H]3[C@@H]2CC[C@]2(C)[C@@H](C(=O)Cn4cc(C#N)cn4)CC[C@@H]32)C1 [II-D5b, 1-(2-((1S,3aS,3bR,5aS,7S,10aS,10bS,12aS)-7-hydroxy-7,10a,12a-trimethyloctadecahydrocyclohepta[a]cyclopenta[f]naphthalen-1-yl)-2-oxoethyl)-1H-pyrazole-4-carbonitrile] | 0.1 to 1
CC(=O)[C@H]1CC[C@H]2[C@@H]3CC[C@@H]4CCC(=O)CC[C@@H]4[C@H]3CC[C@]12C [II-E7a, (1S,3aS,3bR,5aR,10aS,10bR,12aS)-1-acetyl-12a-methylhexadecahydrocyclohepta[a]cyclopenta[f]naphthalen-8(1H)-one] | 1 to 10
CC(=O)[C@H]1CC[C@H]2[C@@H]3CC[C@@H]4CC(=O)CCC[C@@H]4[C@H]3CC[C@]12C [II-E7b, (1 S,3aS,3bR,5aR,10aS,10bR,12aS)-1-acetyl-12a-methylhexadecahydrocyclohepta[a]cyclopenta[f]naphthalen-7(1H)-one] | 1 to 10
CC(=O)[C@H]1CC[C@H]2[C@@H]3CC[C@@H]4C[C@](C)(O)CCC[C@@H]4[C@H]3CC[C@]12C [II-E8a, 1-((1S,3aS,3bR,5aR,7R,10aS,10bR,12aS)-7-hydroxy-7,12a-dimethyloctadecahydrocyclohepta[a]cyclopenta[f]naphthalen-1-yl)ethan-1-one] | 0.01 to 0.1
C[C@]1(O)CCC[C@H]2[C@H](CC[C@@H]3[C@@H]2CC[C@]2(C)[C@@H](C(=O)Cn4cc(C#N)cn4)CC[C@@H]32)C1 [II-E10, 1-(2-((1S,3aS,3bR,5aR,7S,10aS,10bR,12aS)-7-hydroxy-7,12a-dimethyloctadecahydrocyclohepta[a]cyclopenta[f]naphthalen-1-yl)-2-oxoethyl)-1H-pyrazole-4-carbonitrile] | 0.1 to 1
C[C@@]1(O)CCC[C@H]2[C@H](CC[C@@H]3[C@@H]2CC[C@]2(C)[C@@H](C(=O)Cn4cc(C#N)cn4)CC[C@@H]32)C1 [II-E10a, 1-(2-((1S,3aS,3bR,5aR,7R,10aS,10bR,12aS)-7-hydroxy-7,12a-dimethyloctadecahydrocyclohepta[a]cyclopenta[f]naphthalen-1-yl)-2-oxoethyl)-1H-pyrazole-4-carbonitrile] | 0.01 to 0.1
C[C@]1(O)CCC2=CC[C@H]3[C@@H]4CC[C@H](C(=O)Cn5cc(C#N)cn5)[C@@]4(C)CC[C@@H]3[C@@]2(C)CC1 [II-F3, 1-(2-((1S,3aS,3bS,8S,10aR,10bS,12aS)-8-hydroxy-8,10a,12a-trimethyl-1,2,3,3a,3b,4,6,7,8,9,10,10a,10b,11,12,12a-hexadecahydrocyclohepta[a]cyclopenta[f]naphthalen-1-yl)-2-oxoethyl)-1H-pyrazole-4-carbonitrile] | < 0.01

Each molecule was assayed against GABAA receptor (rat brain cortical membranes, [35S]-TBPS binding) (assay: not given). Details: Table I-4; rat brain cortical membranes, 3 nM [35S]-TBPS, in the presence of 5 mM GABA.

Compound | IC50 [µM]
COC[C@@]1(O)CC[C@H]2[C@H](CC[C@@H]3[C@@H]2CC[C@]2(C)[C@@H](OC)CCC[C@@H]32)C1 [I-N11, (2R,4aS,4bR,6aS,7S,10aS,10bR,12aR)-7-methoxy-2-(methoxymethyl)-6a-methyloctadecahydrochrysen-2-ol] | 0.01 to 0.1
COC[C@]1(O)CC[C@H]2[C@H](CC[C@@H]3[C@@H]2CC[C@]2(C)[C@@H](OC)CCC[C@@H]32)C1 [I-N11a, (2S,4aS,4bR,6aS,7S,10aS,10bR,12aR)-7-methoxy-2-(methoxymethyl)-6a-methyloctadecahydrochrysen-2-ol] | 1 to 10
CCOC[C@@]1(O)CC[C@H]2[C@H](CC[C@@H]3[C@@H]2CC[C@]2(C)[C@@H](C(=O)N4CCCC[C@@H]4C)CCC[C@@H]32)C1 [I-P9, ((1S,4aS,4bR,6aR,8R,10aS,10bR,12aS)-8-(ethoxymethyl)-8-hydroxy-12a-methyloctadecahydrochrysen-l-yl)((S)-2-methylpiperidin-1-yl)methanone] | 0.1 to 1
CC(=O)[C@H]1CC[C@H]2[C@@H]3CC[C@@H]4C[C@](C)(O)CC[C@@H]4[C@H]3CC[C@]2(C)C1 [I-R14, 1-((2S,4aS,4bR,6aR,8R,10aS,10bR,12aR)-8-hydroxy-8,12a-dimethyloctadecahydrochrysen-2-yl)ethan-1-one] | 0.1 to 1
C[C@@]1(O)CC[C@H]2[C@H](CC[C@@H]3[C@@H]2CC[C@]2(C)C[C@@H](C(=O)Cn4cc(C#N)cn4)CC[C@@H]32)C1 [I-R17, 1-(2-((2S,4aS,4bR,6aR,8R,10aS,10bR,12aR)-8-hydroxy-8,12a-dimethyloctadecahydrochrysen-2-yl)-2-oxoethyl)-1H-pyrazole-4-carbonitrile] | 1 to 10
C[C@@]1(O)CC[C@H]2[C@H](CC[C@@H]3[C@@H]2CC[C@]2(C)C[C@H](C(=O)Cn4cc(C#N)cn4)CC[C@@H]32)C1 [I-R17a, 1-(2-((2R,4aS,4bR,6aR,8R,10aS,10bR,12aR)-8-hydroxy-8,12a-dimethyloctadecahydrochrysen-2-yl)-2-oxoethyl)-1H-pyrazole-4-carbonitrile] | 1 to 10
C[C@@]1(O)CC[C@H]2[C@H](CC[C@@H]3[C@@H]2CC[C@]2(C)C[C@@H](C(=O)c4ccccc4)CC[C@@H]32)C1 [I-R21, ((2S,4aS,4bR,6aR,8R,10aS,10bR,12aR)-8-hydroxy-8,12a-dimethyloctadecahydrochrysen-2-yl)(phenyl)methanone] | 0.1 to 1
CCOC[C@@]1(O)CC[C@H]2[C@@H](CC[C@@H]3[C@@H]2CC[C@]2(C)[C@@H](C(C)=O)CCC[C@@H]32)C1 [I-S3, 1-((1S,4aS,4bR,6aS,8R,10aS,10bR,12aS)-8-(ethoxymethyl)-8-hydroxy-12a-methyloctadecahydrochrysen-1-yl)ethan-1-one] | 0.1 to 1
